Reference: US8268848B2, “Cyclopropane compound” (Eisai R&D Management Co., Ltd., priority 2010, dated 2012)
Read-outs that look alike come from different tables or passages of the source.

Tests used:
[1] = target: T1, OX2 (Homo sapiens, UniProt O43614); assay: Measurement of orexin receptor-binding ability ([125I]-OX-A, cell membranes, OX2); set-up: expressed in transfected cells; host or cells: CHO cells (membrane preparation); conditions: membranes of recombinant CHO cells expressing OX2, 0.2 nM [125I]-OX-A
T1 sequence (O43614 1-444): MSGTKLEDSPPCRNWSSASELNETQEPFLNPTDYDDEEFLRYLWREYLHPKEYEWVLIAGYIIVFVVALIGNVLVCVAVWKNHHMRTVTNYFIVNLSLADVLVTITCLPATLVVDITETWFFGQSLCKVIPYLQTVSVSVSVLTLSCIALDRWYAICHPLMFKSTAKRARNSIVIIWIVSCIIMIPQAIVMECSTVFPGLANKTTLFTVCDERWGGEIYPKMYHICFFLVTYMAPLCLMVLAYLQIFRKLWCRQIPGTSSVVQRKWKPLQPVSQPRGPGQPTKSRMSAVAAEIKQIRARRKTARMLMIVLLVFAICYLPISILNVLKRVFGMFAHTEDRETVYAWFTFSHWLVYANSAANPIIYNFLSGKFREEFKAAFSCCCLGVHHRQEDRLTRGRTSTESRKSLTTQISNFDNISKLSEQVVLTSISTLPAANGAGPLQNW

[2] = target: T2, OX1 (Homo sapiens, UniProt O43613); assay: Measurement of orexin receptor-binding ability ([125I]-OX-A, cell membranes, OX1); set-up: expressed in transfected cells; host or cells: CHO cells (membrane preparation)
T2 sequence (O43613 1-425): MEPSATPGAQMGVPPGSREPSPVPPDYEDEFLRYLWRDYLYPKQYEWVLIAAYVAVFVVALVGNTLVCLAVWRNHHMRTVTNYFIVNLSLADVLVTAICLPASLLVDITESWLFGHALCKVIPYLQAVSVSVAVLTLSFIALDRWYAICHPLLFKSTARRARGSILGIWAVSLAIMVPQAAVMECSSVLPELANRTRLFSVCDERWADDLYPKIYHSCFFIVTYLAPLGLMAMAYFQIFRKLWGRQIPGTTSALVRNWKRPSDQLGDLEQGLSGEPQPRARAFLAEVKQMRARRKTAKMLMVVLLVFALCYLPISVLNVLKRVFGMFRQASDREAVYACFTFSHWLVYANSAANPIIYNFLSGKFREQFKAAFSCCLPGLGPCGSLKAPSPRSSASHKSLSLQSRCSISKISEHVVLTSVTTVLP

[3] = target: T2, OX1; assay: Measurement of antagonism (PLAP assay), OX1; type: cell-based; set-up: expressed in transfected cells; host or cells: HEK-293 cells, expression vector pBabeCLIH
Description: (§1) 2. Measurement of Antagonism (PLAP Assay)
(§2) The antagonistic function of the compound of the present invention to prevent the activation of OX2 and OX1 by orexin-A (OX-A), which is a natural peptide agonist, was measured using a cell-based reporter assay. […] The cells were plated at a density of 10,000 cells/well onto a non-coated 96-well plate in Dulbecco's modified Eagle medium (Sigma Cat No. D6046:10% v/v heat-inactivated fetal bovine serum was contained). The cells were cultured at 37° C. overnight, so that they could adhere to the plate. On the following day, cells were incubated with a compound of the present invention dissolved in Dulbecco's modified Eagle medium (Sigma Cat No. A8806:0.1% w/v bovine serum albumin was contained), and added to the cell plate to reach a final concentration of 0.1% dimethyl sulfoxide.
(§3) The thus obtained mixture was incubated at room temperature for 1 hour. Thereafter, human OX-A and forskolin were dissolved in the same medium as described above, which contained fetal bovine serum albumin, and the medium was then added to the cells, resulting in a final concentration of 300 nM forskolin. Subsequently, the cells were cultured at 37° C. for approximately 18 to 24 hours.

[4] = target: T1, OX2; assay: Measurement of antagonism (PLAP assay), OX2; type: cell-based; set-up: expressed in transfected cells; host or cells: HEK-293 cells, expression vector pBabeCLIH
Description: as §1, §2, §3

[5] = test system: mice (C57BL/6NCrlCrLj); assay: Sleep experiment (EEG/EMG) in mice; type: in vivo
Description: As a method for measuring the influence of the present compound on sleep time, electroencephalogram (EEG) and electromyogram (EMG) measurements were carried out in mice (C57BL/6NCrlCrLj).
In order to measure brain waves and muscle signals, EEG and EMG electrode implantation was performed on individual mice, and the mice were then housed in a state in which they could freely move and habituate in individual recording cages for 1 week or longer. Thereafter, amplified EEG and EMG signals were digitally recorded.
Mice received either oral administration of vehicle or test compound in vehicle, after which sleep/wake behavior of mice was recorded for 3 hours.
For sleep analysis, automatic analysis software from Kissei Comtec Co., Ltd. was used to analyze EEG frequency and EMG activity signals in detail and to determine sleep and wake states. Thereafter, accumulated sleeping time over 3 hours was calculated.
The effect of the compound to increase sleep time was evaluated as the difference between sleeping time on the vehicle-administration day and the sleep time on the subsequent drug-administration day.
The minimum effective dose (MED; mg/kg) was obtained from accumulated sleep time of mice with three hours after the administration.

[6] = test system: rats; conditions: cited from earlier work
[7] = test system: normal humans; conditions: cited from earlier work
[8] = test system: patients with insomnia; conditions: cited from earlier work
[9] = membranes of recombinant CHO cells expressing OX1, 0.2 nM [125I]-OX-A, read-out: OX1 (IC50)
[10] = HEK-293 cells expressing human OX1, 1 nM human OX-A, IC50 converted by Cheng-Prusoff equation, read-out: OX1 (Ki)
[11] = HEK-293 cells expressing human OX2, 1 nM human OX-A, IC50 converted by Cheng-Prusoff equation, read-out: OX2 (Ki)
[12] = mice, oral administration, difference to vehicle day, 3 hours

Row | SMILES | Ki [3, 10] | Ki [4, 11] | IC50 ([1]; OX2 (IC50) nM) | IC50 [2] | Sleep extended time 10 mg/kg (min/3 hrs) [5, 12] | also measured
1 | Cc1ncc(OC[C@@]2(c3cc(F)cc(F)c3)C[C@H]2C(=O)Nc2cc(C)c(F)cn2)c(C)n1 [Example 129, (1R,2S)-2-(3,5-difluorophenyl)-2-{[(2,4-dimethylpyrimidin-5-yl)oxy]methyl}-N-(5-fluoro-4-methylpyridin-2-yl)cyclopropanecarboxamide] | 0.97 nM | 0.06 nM |  |  |  | IC50 ([1]; read-out: OX2 (IC50)): 1.5 nM; IC50 [2, 9]: 1 nM; Sleep extended time 10 mg/kg (min/3 hrs) ([5]; po, 3 h): 30.0 min/3 hrs
2 | Cc1ncc(OC[C@@]2(c3ccc(Cl)cc3)C[C@H]2C(=O)Nc2ccc(F)cn2)c(C)n1 [Example 161] | 32 nM | 2.9 nM | 12 nM | 50 nM | 10.0 min/3 hrs | 
3 | Cc1ncc(OC[C@@]2(c3ccc(F)c(F)c3)C[C@H]2C(=O)Nc2cc(C)c(F)cn2)c(C)n1 [Example 164, (1R,2S)-2-(3,4-difluorophenyl)-2-{[(2,4-dimethylpyrimidin-5-yl)oxy]methyl}-N-(5-fluoro-4-methylpyridin-2-yl)cyclopropanecarboxamide] | 0.93 nM | 0.087 nM |  |  |  | IC50 ([1]; read-out: OX2 (IC50)): 6 nM; IC50 [2, 9]: 3 nM; Sleep extended time 10 mg/kg (min/3 hrs) ([5]; po, 3 h): 48.4 min/3 hrs
4 | COc1cccc([C@]2(COc3cnc(C)nc3C)C[C@H]2C(=O)Nc2ccc(F)cn2)c1 [Example 186, (1R,2S)-2-{[(2,4-dimethylpyrimidin-5-yl)oxy]methyl}-N-(5-fluoropyridin-2-yl)-2-(3-methoxyphenyl)cyclopropanecarboxamide] | 87 nM | 3.4 nM | 7 nM | 22 nM | 14.7 min/3 hrs | 
5 | CCc1nc(C)ncc1OC[C@@]1(c2cccc(F)c2)C[C@H]1C(=O)Nc1ccccn1 [Example 240, (1R,2S)-2-{[(4-ethyl-2-methylpyrimidin-5-yl)oxy]methyl}-2-(3-fluorophenyl)-N-(pyridin-2-yl)cyclopropanecarboxamide] |  |  | 2.9 nM | 8.7 nM | 7.7 min/3 hrs | Ki [3]: 18 nM; Ki [4]: 0.91 nM; minimum effective dose (MED) ([5]; mice, oral, doses 0.3 to 100 mg/kg, accumulated sleep time within three hours after administration): 10 mg/kg
6 | Cc1ncc(OC[C@@]2(c3ccccc3F)C[C@H]2C(=O)Nc2ccc(F)cn2)c(C)n1 [Example 263] |  |  | 17 nM | 82 nM | 27.3 min/3 hrs | Ki [3]: 193 nM; Ki [4]: 8.6 nM
7 | CNC(=O)[C@@H](c1ccccc1)N1CCc2cc(OC)c(OC)cc2[C@@H]1CCc1ccc(C(F)(F)F)cc1 [almorexant, (2R)-2-{(1S)-6,7-dimethoxy-1-[2-(4-trifluoromethyl-phenyl)ethyl]-3,4-dihydro-1H-isoquinolin-2-yl}-N-methyl-2-phenylacetamide] |  |  |  |  |  | REM sleep time and non-REM sleep time [6]: dose-dependently increases both rapid eye movement (REM) sleep time and non-REM sleep time; wakefulness [6]: causes a decrease in wakefulness in rats; sleep latency, sleep efficacy, total sleep time [7]: exhibits dose-dependently a reduction of sleep latency, sleep efficacy and extension of total sleep time; sleep efficacy, sleep latency, REM sleep [8]: exhibits improvement of sleep efficacy, shortness of sleep latency, increase of REM sleep and improvement of REM sleep ratio
